# Data: doi:10.1101/2025.01.24.634724, “Receptor Activity-Modifying Protein 3 enhances GLP-1-mediated Insulin Secretion” (bioRxiv, 2025)
# Values joined by “and” are separate entries in the source; they are usually repeats but may differ in a detail not shown here. Identical values can stand only once. “Also recorded” adds a separate entry of the source. Numbered stars: 1 amine (or outer) side, 2 acyl side, 3 side chain; on linkers, the order of the positions; unused ones are H or OH. Bridge positions count the residues as written; N and C are the ends. Square brackets hold non-standard residues; d marks the D form. Peptide text beside a SMILES is read from it. X1 = CC(=O)NC(C(=O)OC(C(C)C)C(N[*:1])C(=O)[*:2])C(O)C(C)C; PhLac = O=C(O)[CH](O)Cc1ccccc1; NMeT = CN[CH](C(=O)O)[CH](C)O; NMeA = CN[CH](C)C(=O)O; NMeDha = C=C(NC)C(=O)O
# How the values were obtained:
# CLR-RAMP1 = conditions: cited from earlier work
# From the text: As RAMP3 expression varies between tissues, it is possible that by directly targeting this complex, tissue specific receptor activation could be facilitated. […] Agonists which have reduced affinity for the RAMP3 complex over receptor alone ...
# INS-1 832/3 cells = assay: Insulin secretion (GSIS), INS-1 832/3; format: cell-based, rat; conditions: for effect of inhibitor on GLP-1-mediated insulin secretion: 10nM GLP-1, vector or RAMP3, 30 min inhibitor pre-treatment (YM-254890 100nM, PTX 0.2ng/μL), n>4
# Protocol: (§1) Insulin content was measured with the insulin ultra-sensitive detection kit (Cisbio).
# [1] = test system: LgBiT-GLP-1R with SmBiT-RAMP1 or -RAMP2; assay: NanoBiT/BRET fluorescent ligand binding with SmBiT-RAMP1 or -RAMP2; conditions: SmBiT-RAMP1 or -RAMP2, HEK293T
# [2] = test system: wildtype SvEv129/SJ and isogenic Ramp3−/− male mice; assay: IPGTT plasma insulin, WT and Ramp3−/− mice; format: in vivo, mouse; conditions: GLP-1 50nmol/kg subQ, 15 min after glucose 2g/kg i.p., n=5
# From the text: (§2) Ramp3^−/− mice and genotyping have been previously described ([34]).
# Min6 B1 cells = assay: Insulin secretion, siRNA treated Min6 B1; format: cell-based, mouse; conditions: 10nM or 1nM peptide with 10mM glucose; Min6 B1, n=4
# Protocol: as §1
# GCGR with RAMP2 = conditions: RAMP2 co-expression ref 13; cited from earlier work
# From the text: Signalling bias can also be influenced by the tissue, due to differential expression of signalling proteins, as well as allosteric modulators. A common protein allosteric modulator of Class B1 GPCRs are the receptor activity-modifying proteins (RAMPs). First discovered for the calcitonin-like receptor, with which they form obligate heterodimers, RAMPs influence the expression, affinity, and signalling bias of the receptor. For the calcitonin family, this leads to receptors considered functionally distinct ([10], [11]), although smaller effects are observed on other receptors e.g. the vasoactiv ...
# [3] = test system: wildtype SvEv129/SJ and isogenic Ramp3−/− male mice; assay: Insulin tolerance test (ITT), blood glucose, WT and Ramp3−/− mice; format: in vivo, mouse; conditions: GLP-1 50nmol/kg subQ 15 min before insulin 1IU/kg i.p., n=5
# From the text: as §2
# [4] = test system: Ramp1/Ramp3 knockout mice; conditions: mouse models; dual Ramp1/Ramp3 deletion ref 43 (Leuthardt et al.); cited from earlier work
# From the text: It is possible this difference is due to lower receptor expression, or a differential effect on bias for the rodent receptors than the human. Species differences in signalling bias have been observed for other GPCRs associated with islet cell pharmacology ([41]), so it stands to reason this might be influencing the differences o ...
# Nluc-GLP-1R [5] = assay: cAMP accumulation, HEK293T; format: cell-based
# Nluc-GLP-1R [6] = assay: (Ca2+)i mobilisation, HEK293T; format: cell-based
# Protocol: HEK293T cells were transfected with 100ng Nluc-GLP-1R and 200ng of pcDNA3.1 or FLAG-RAMP3, or 100ng of pcDNA3.1 and FLAG- RAMP3 per 100μl cells and seeded in a 0.01% PLL-coated black-walled clear-bottom 96-well plate. 48 hours later media was removed, and cells were incubated in 10μM Fluor4-AM dye containing 2.5mM probenecid for 1 hour at room temperature. Cells were washed and dye replaced with Hank’s Balanced Salt Solution (Lonza) without Ca^2+ containing 0.1% BSA w/v. […] The response to vehicle was taken to be 0%, and the response to 10 μM ionomycin was used as 100%. For HEK293T cells, the maximal fluorescence was used for further analysis.
# GLP-1R / Gαs = assay: TRUPATH G protein dissociation, Gαs; format: cell-based; conditions: HEK293T
# Protocol: (§3) G Protein dissociation assays were performed using the TRUPATH biosensor platform, as described ([28]). HEK293T cells were transfected with GLP-1R, Gα, Gγ, Gβ, and pcDNA3.1 or FLAG-RAMP3 all in equal quantities and incubated overnight. […] Cells were washed with KREBs with 0.1% BSA and incubated in buffer containing 5μM coelenterazine 400a for 5 minutes. Ligands were then added, and plates read using the Pherastar microplate reader using the BRET2 module, at 60-second intervals. The BRET2 ratio was calculated (λ515/λ400) and total dissociation over a 30-minute period used to generate dose response curves.
# GLP-1R-Nluc [7] = assay: Receptor internalisation (loss of BRET with RIT-Venus), HEK293T; format: cell-based; conditions: for effect of RAMP3 on internalisation: RAMP3 overexpression
# Protocol: Experiments were performed as previously described (([47])).
# GLP-1R / Gαq(R183Q) = assay: TRUPATH G protein dissociation, Gαq(R183Q); conditions: HEK293T, R183Q mutant
# Protocol: as §3
# GLP-1R-Nluc [8] = assay: β-arrestin recruitment, HEK293T; format: cell-based; conditions: stated in discussion
# [9] = relative to GLP-1 at GLP-1R alone
molecule,measurement,setting,value
NCCCC[C@H](NC(=O)[C@@H](Cc1cc(Br)c(O)c(Br)c1)NC(=O)N1CCC(N2Cc3ccccc3NC2=O)CC1)C(=O)N1CCN(c2ccncc2)CC1 [BIBN 4096 BS],activity at CLR-RAMP1,CLR-RAMP1,CLR-RAMP1 antagonist
CC(C)(C)c1cc(C(=O)/C(C#N)=N/Nc2cccc(Cl)c2)no1 [ESI-09],effect of inhibitor on GLP-1-mediated insulin secretion,INS-1 832/3 cells,significantly decreased GLP-1 mediated potentiation of GSIS in both vector and RAMP3 transfected cells
same,effect on insulin secretion with […] glucose alone,"INS-1 832/3 cells; 10μM ESI-09, no GLP-1, n=6",a reduction was also observed on the response to 16.7mM glucose alone; also recorded: a non-significant reduction was also observed in cells stimulated with high glucose alone
Nc1ncnc2c1nc(Br)n2C1OC2COP(O)(=S)OC2C1O (stereo not shown) [Rp-8-Br-cAMPs],effect of inhibitor on GLP-1-mediated insulin secretion,INS-1 832/3 cells,"no effect on insulin secretion, irrespective of the expression of RAMP3"
C=C1C(=O)NC(C)C(=O)N(C)C(C)C(=O)NC(C(OC(=O)C(NC(C)=O)C(O)C(C)C)C(C)C)C(=O)N(C)C(C(C)OC)C(=O)OC(C)C(NC(C)=O)C(=O)OC(Cc2ccccc2)C(=O)N1C (stereo not shown) [YM-254890] (Ac-T[PhLac][NMeDha]A[NMeA][X1][NMeT](Me); ester 1-C; configuration not given here),effect of inhibitor on GLP-1-mediated insulin secretion,INS-1 832/3 cells,the effect of YM-254890 was greater than PTX
"Ex-4-Red: Tag-Lite GLP-1 receptor red ligand, based on exendin-4 (Cisbio)",binding of Ex-4-Red,[1],not observed for SmBiT-RAMP1 or -RAMP2
GLP-1 (7–36amide),"plasma insulin, IPGTT",[2]; Ramp3−/− mice,This response was lost in Ramp3^−/− mice; also recorded: no longer able to elevate insulin secretion above vehicle-treated animals
same,"plasma insulin, IPGTT",[2]; WT mice,increased insulin secretion 15 minutes after administration of glucose
same,effect of RAMP3 knockdown on insulin secretion,Min6 B1 cells,"attenuated, although the effect was small"
same,effect of RAMP2 on Gαs coupling at GCGR,GCGR with RAMP2,decreasing the response
same,"blood glucose, ITT",[3]; Ramp3−/− mice,lost in Ramp3^−/− mice (Figure 7H)
same,"blood glucose, ITT",[3]; WT mice,potentiated the effects of insulin on blood glucose
same,effect of Ramp knockout on bodyweight lowering,[4],increase the effect of GLP-1 on bodyweight lowering in mouse models
same,insulin secretion,INS-1 832/3 cells,2.36±0.30 fold over 2.8mM glucose and 3.94±0.33 fold over 2.8mM glucose
GLP-1 (9–36amide) [GLP-1 9–36],cAMP production,"Nluc-GLP-1R [5]; 8-minute stimulation, concentration range tested",did not elicit sufficient cAMP production over the concentration range tested
same,(Ca2+)i mobilisation,Nluc-GLP-1R [6]; in the absence of RAMP3,unable to elicit any (Ca^2+)i mobilisation in the absence of RAMP3
"exendin-4: incretin mimetic, approved for T2DM in 2005",effect of RAMP3 overexpression on cAMP potency and efficacy,Nluc-GLP-1R [5]; 8-minute stimulation,reductions in both potency and efficacy observed when RAMP3 was overexpressed
same,effect of RAMP3 on Gαs dissociation,GLP-1R / Gαs,no effect
same,effect of RAMP3 on internalisation,GLP-1R-Nluc [7],no subsequent effect on internalisation
same,effect of RAMP3 on Gαq(Q) dissociation,GLP-1R / Gαq(R183Q),no effect
glucagon: agonist of the glucagon receptor (GCGR),effect of RAMP2 on Gαs coupling at GCGR,GCGR with RAMP2,increasing Gαs coupling at GCGR
glucose-dependent insulinotropic polypeptide [GIP],effect of RAMP3 knockdown on insulin secretion,Min6 B1 cells,unaffected by RAMP3 knockdown
same,effect of RAMP1 and RAMP3 on insulin secretion,INS-1 832/3 cells,both RAMP1 and 3 increased insulin secretion
"liraglutide: a synthetic, lipidated GLP-1 mimetic, approved in the treatment of T2DM",inherent signalling bias,GLP-1R-Nluc [8],bias towards β-arrestin recruitment
same,effect of RAMP3 overexpression on cAMP potency and efficacy,Nluc-GLP-1R [5]; 8-minute stimulation,reductions in both potency and efficacy observed when RAMP3 was overexpressed
same,"effect of RAMP3 on LogRA, cAMP accumulation / second messenger",Nluc-GLP-1R [5]; [9],lesser effects on second messenger signalling
same,effect of RAMP3 on Gαs dissociation,GLP-1R / Gαs,no effect
same,effect of RAMP2 on Gαs coupling at GCGR,GCGR with RAMP2,decreasing the response
same,effect of RAMP3 on (Ca2+)i mobilisation,Nluc-GLP-1R [6],no significant effects
same,effect of RAMP3 on internalisation,GLP-1R-Nluc [7],significant decrease in the potency of internalisation; also recorded: the response to liraglutide was reduced
same,"effect of RAMP3 on LogRA, desensitisation / internalisation",GLP-1R-Nluc [7]; [9],greater reduction in internalisation
same,effect of RAMP3 on Gαq(Q) dissociation,GLP-1R / Gαq(R183Q),no effect
oxyntomodulin: an endogenous dual agonist of both GCGR and GLP-1R,effect of RAMP3 overexpression on cAMP potency and efficacy,Nluc-GLP-1R [5]; 8-minute stimulation,reductions in both potency and efficacy observed when RAMP3 was overexpressed
same,effect of RAMP2 on Gαs coupling at GCGR,GCGR with RAMP2,increasing Gαs coupling at GCGR
same,effect of RAMP3 on internalisation,GLP-1R-Nluc [7],no subsequent effect on internalisation
same,effect of RAMP3 on Gαq(Q) dissociation,GLP-1R / Gαq(R183Q),no effect
pertussis toxin [PTX],effect of inhibitor on GLP-1-mediated insulin secretion,INS-1 832/3 cells,decreased insulin secretion significantly only when RAMP3 was overexpressed
